Assays:
[1] = tested on: HUVECS; assay: HUVECS cell viability (mts) after antisense with or without drug; type: cell-based, human
Method: HUVECS were grown for 2 days in wells after seeding at 1200 per well. Antisense oligonucleotide of Seq. ID No. 5 (4 μg/ml with LIPOFECTIN™) was added in serum free medium and incubated with the cells for 4 hours. Then 100 μl of serum was added and incubation was continued overnight. The next day, 150 μl of drug solution in serum medium was added. After two days, 20 μl of mts solution was added and left for approximately 3 hours. Cell viability was determined as the difference between absorption at 490 and 595 nm.

[2] = tested on: HUVECS; conditions: by the induction of apoptosis; cited from earlier work
[3] = Table 1 series, Drug alone (100 nM paclitaxel)
[4] = Table 3 series, Drug alone (200 nM doxorubicin)
[5] = Table 1 series, AS 50 nM, no drug
[6] = Table 1 series, AS 100 nM, no drug
[7] = Table 1 series, AS 200 nM, no drug
[8] = Table 1 series, Drug (100 nM paclitaxel) + AS 50 nM
[9] = Table 1 series, Drug (100 nM paclitaxel) + AS 100 nM
[10] = Table 1 series, Drug (100 nM paclitaxel) + AS 200 nM
[11] = Table 2 series, AS 50 nM, no drug
[12] = Table 2 series, AS 100 nM, no drug
[13] = Table 2 series, AS 200 nM, no drug
[14] = Table 2 series, Drug (100 nM camptothecin) + AS 50 nM
[15] = Table 2 series, Drug (100 nM camptothecin) + AS 100 nM
[16] = Table 2 series, Drug (100 nM camptothecin) + AS 200 nM
[17] = Table 3 series, AS 50 nM, no drug
[18] = Table 3 series, AS 100 nM, no drug
[19] = Table 3 series, AS 200 nM, no drug
[20] = Table 3 series, Drug (200 nM doxorubicin) + AS 50 nM
[21] = Table 3 series, Drug (200 nM doxorubicin) + AS 100 nM
[22] = Table 3 series, Drug (200 nM doxorubicin) + AS 200 nM
[23] = Table 2 series, Drug alone (100 nM camptothecin)

With `CC(=O)O[C@H]1C(=O)[C@@]2(C)[C@H]([C@H](OC(=O)c3ccccc3)[C@]3(O)C[C@H](OC(=O)[C@H](O)[C@@H](NC(=O)c4ccccc4)c4ccccc4)C(C)=C1C3(C)C)[C@]1(OC(C)=O)CO[C@@H]1C[C@@H]2O` [paclitaxel, reference compound] as the molecule, how does the “absorbance at 490 nm (mts, cell viability)” value [1, 3] read?
The value was 0.53.

What about the “absorbance at 595 nm (mts, cell viability)” value [1, 3] of the same molecule?
The value was 0.12.

What about the “concentration range that inhibits Huvecs” value [2] of the same molecule?
Its value is “low nanomolar range”.

Which “absorbance at 490 nm (mts, cell viability)” value [1, 4] does the source give for `COc1cccc2c1C(=O)c1c(O)c3c(c(O)c1C2=O)C[C@@](O)(C(=O)CO)C[C@@H]3O[C@H]1C[C@H](N)[C@H](O)[C@H](C)O1` [doxorubicin, reference compound] here?
The value was 0.74.

And the “absorbance at 595 nm (mts, cell viability)” value [1, 4]?
The value was 0.08.

What about the “concentration range that inhibits Huvecs” value [2] of the same molecule?
Its value is “low nanomolar range”.

What does the source list for “AS: Antisense oligonucleotide of Seq. ID No. 5, which reduces the effective amount of clusterin (antisense CAGCAGCAGAGTCTTCATCAT; listed as DNA, chemistry not given here)”?
cell viability response to antisense concentration ([1]; FIG. 1, paclitaxel series): dose dependent response; cell viability response to antisense in the presence of drug versus absence ([1]; FIG. 1, in the presence of 100 nM paclitaxel): the response is greater; cell viability response to antisense concentration ([1]; FIG. 2, camptothecin series): dose dependent response; cell viability response to antisense in the presence of drug versus absence ([1]; FIG. 2, in the presence of 100 nM camptothecin): the response is greater; cell viability response to antisense concentration ([1]; FIG. 3, doxorubicin series): dose dependent response; cell viability response to antisense in the presence of drug versus absence ([1]; FIG. 3, in the presence of 200 nM doxorubicin): the response is greater; absorbance at 490 nm (mts, cell viability) [1, 5]: 0.66; absorbance at 595 nm (mts, cell viability) [1, 5]: 0.04; absorbance at 490 nm (mts, cell viability) [1, 6]: 0.40; absorbance at 595 nm (mts, cell viability) [1, 6]: 0.09; absorbance at 490 nm (mts, cell viability) [1, 7]: 0.28; absorbance at 595 nm (mts, cell viability) [1, 7]: 0.07; absorbance at 490 nm (mts, cell viability) [1, 8]: 0.50; absorbance at 595 nm (mts, cell viability) [1, 8]: 0.09; absorbance at 490 nm (mts, cell viability) [1, 9]: 0.24; absorbance at 595 nm (mts, cell viability) [1, 9]: 0.04; absorbance at 490 nm (mts, cell viability) [1, 10]: 0.17; absorbance at 595 nm (mts, cell viability) [1, 10]: 0.05; absorbance at 490 nm (mts, cell viability) [1, 11]: 0.66; absorbance at 595 nm (mts, cell viability) [1, 11]: 0.10; absorbance at 490 nm (mts, cell viability) [1, 12]: 0.39; absorbance at 595 nm (mts, cell viability) [1, 12]: 0.06; absorbance at 490 nm (mts, cell viability) [1, 13]: 0.21; absorbance at 595 nm (mts, cell viability) [1, 13]: 0.04; absorbance at 490 nm (mts, cell viability) [1, 14]: 0.53; absorbance at 595 nm (mts, cell viability) [1, 14]: 0.07; absorbance at 490 nm (mts, cell viability) [1, 15]: 0.31; absorbance at 595 nm (mts, cell viability) [1, 15]: 0.08; absorbance at 490 nm (mts, cell viability) [1, 16]: 0.15; absorbance at 595 nm (mts, cell viability) [1, 16]: 0.05; absorbance at 490 nm (mts, cell viability) [1, 17]: 0.66; absorbance at 595 nm (mts, cell viability) [1, 17]: 0.07; absorbance at 490 nm (mts, cell viability) [1, 18]: 0.35; absorbance at 595 nm (mts, cell viability) [1, 18]: 0.05; absorbance at 490 nm (mts, cell viability) [1, 19]: 0.22; absorbance at 595 nm (mts, cell viability) [1, 19]: 0.04; absorbance at 490 nm (mts, cell viability) [1, 20]: 0.66; absorbance at 595 nm (mts, cell viability) [1, 20]: 0.06; absorbance at 490 nm (mts, cell viability) [1, 21]: 0.32; absorbance at 595 nm (mts, cell viability) [1, 21]: 0.04; absorbance at 490 nm (mts, cell viability) [1, 22]: 0.18; absorbance at 595 nm (mts, cell viability) [1, 22]: 0.02; effect of antisense on inhibition of cell proliferation induced by antiproliferative drugs ([1]; paclitaxel, camptothecin, doxorubicin, downregulation of clusterin): enhanced

Which results are given for `CC[C@@]1(O)C(=O)OCc2c1cc1n(c2=O)Cc2cc3ccccc3nc2-1` [camptothecin, reference compound]?
absorbance at 490 nm (mts, cell viability) [1, 23]: 0.55; absorbance at 595 nm (mts, cell viability) [1, 23]: 0.07; concentration range that inhibits Huvecs [2]: low nanomolar range

Reference: patent publication US20040224914A1, “Method for treatment of angiogenic disorders” (The University of British Columbia, priority 2003, published 2004)
